From patent US8101658B2, “Nitric oxide donating prostamides” (Nicox S.A., priority 2008, dated 2012)
Several values for one entry are separate records, joined by “and”; a condition that tells them apart may be missing. Equal values may be shown once. Marks after values point to notes of the source that are not given here.

Columns and labels:
[1] = test system: ocular hypertensive non human primates; experiment: Intraocular pressure by pneumatonometry in ocular hypertensive primates; format: in vivo; conditions: ocular hypertensive primate, hypertensive eye, topical 2×25 μl drops in the evening, dose equimolar to 0.03% Bimatoprost; for ΔEmax (maximal IOP efficacy as compared to baseline): IOP at 12 and 18 h, n=8
Description: (§1) Intraocular pressure was measured by pneumatonometry in ocular normotensive dogs (Beagle) and ocular hypertensive non human primates (for example, although dosing different here, see hypertensive primates described by Toris, C. B.; Zhan, G.-L.; Feilmeier, M. R.; Camras, C. B.; McLaughlin, M. A. J. Ocular Pharm. Ther. 2006, 22, 86-92). As described, only one eye is hypertensive in this primate model. Studies were performed in conscious animals (n=8/study) trained to accept pneumatonometry. The test compound and controls were formulated in a 10 mM citrate buffer vehicle at pH 5.5 with 0.5% Tween 80 and 0.02% benzalkonium chloride, and were administered in the evening. All test compounds were formulated at a dose equimolar to 0.03% Bimatoprost. Intraocular pressure was measured at −12 (baseline), 12 and 18 hours post treatment. Tetracaine hydrochloride (0.5%) was used to anesthetize the cornea when the intraocular pressure measurements were taken.
(§2) In the primate model, the hypertensive eye received 2×25 μl volume drops of the test compound. After a washout period of one week, the ocular hypertensive eye was then dosed with Bimatoprost (2×25 μl volume drops) as a control. The contralateral, normotensive eye was not treated in the study. In the normotensive dog model, the test compound was administered topically to one eye in a 50 μl volume drop. The contralateral eye received a 50 μl volume drop of blank vehicle or Bimatoprost (in the case of the head-to-head study only) to serve as a control. Students paired t test was used to compare treatment with test compound vs vehicle or Bimatoprost control for significant differences.
(§3) Tables 2 and 3 describe the intraocular pressure (IOP) changes that were seen following topical application of novel NO-prostamides in ocular hypertensive non-human primates and normotensive dogs. ΔEmax represents the maximal efficacy as compared to baseline (BL) values. ΔΔEmax reflects the difference in IOP from compound-treated eye over that seen for vehicle-treated eye at the timepoint wherein maximum IOP reduction for compound was seen. The percent change from vehicle control was the percentage change in IOP reduction conferred by compound over that for vehicle (set at 100%). Tmax represents the time point at which maximum IOP reduction of compound was observed.

[2] = test system: ocular normotensive dogs (Beagle); experiment: Intraocular pressure by pneumatonometry in ocular normotensive dogs; format: in vivo; conditions: normotensive dog; for ΔΔEmax (difference in IOP compound-treated eye over vehicle-treated eye at time of maximum reduction): topical 50 μl drop to one eye in the evening, contralateral eye vehicle, dose equimolar to 0.03% Bimatoprost, n=8; for % Change from vehicle control (IOP): topical 50 μl drop to one eye, contralateral eye vehicle (set at 100%)
Description: as §1, §2, §3

| SMILES | % change from Baseline (IOP) [1] | ΔEmax (maximal IOP efficacy as compared to baseline) [1] | ΔΔEmax (difference in IOP compound-treated eye over vehicle-treated eye at time of maximum reduction) [2] | % Change from vehicle control (IOP) [2] |
| --- | --- | --- | --- | --- |
| CCNC(=O)CCC/C=C\C[C@@H]1[C@@H](/C=C/[C@@H](O)CCc2ccccc2)[C@H](O)C[C@@H]1O [Bimatoprost, reference compound] | −13% | −4.8* mm Hg | −4.0** mm H/g | −16** % |
| CCNC(=O)CCC/C=C\C[C@@H]1[C@@H](/C=C/[C@H](CCc2ccccc2)OC(=O)CCCO[N+](=O)[O-])[C@H](O)C[C@@H]1O [Example A-1, (1S,2E)-3-{(1R,2R,3S,5R)-2-[(2Z)-7-(Ethylamino)-7-oxohept-2-en-1-yl]-3,5-dihydroxycyclopentyl}-1-(2-phenylethyl)prop-2-en-1-yl 4-(Nitrooxy)butanoate] | – | – | −3.6** mm H/g | −20** % |
| CCNC(=O)CCC/C=C\C[C@@H]1[C@@H](/C=C/[C@H](CCc2ccccc2)OC(=O)CCCCCO[N+](=O)[O-])[C@H](O)C[C@@H]1O [Example B-1, (1S,2E)-3-{(1R,2R,3S,5R)-2-[(2Z)-7-(Ethylamino)-7-oxohept-2-en-1-yl]-3,5-dihydroxycyclopentyl}-1-(2-phenylethyl)prop-2-en-1-yl 6-(Nitrooxy)hexanoate] | −24** % | −7.7** mm Hg | – | −28** % and −34** % |
| CCNC(=O)CCC/C=C\C[C@@H]1[C@@H](/C=C/[C@H](CCc2ccccc2)OC(=O)CCOCCOCCOCCO[N+](=O)[O-])[C@H](O)C[C@@H]1O [Example C-1, (1S,2E)-3-{(1R,2R,3S,5R)-2-[(2Z)-7-(Ethylamino)-7-oxohept-2-en-1-yl]-3,5-dihydroxycyclopentyl}-1-(2-phenylethyl)prop-2-en-1-yl 3-(2-{2-[2-(Nitrooxy)ethoxy]ethoxy}ethoxy)propanoate] | – | – | −3.6** mm H/g | -18% |
| CCNC(=O)CCC/C=C\C[C@@H]1[C@@H](/C=C/[C@@H](O)CCc2ccccc2)[C@H](OC(=O)CCCCCO[N+](=O)[O-])C[C@@H]1O [Example F-1, (1R,2R,3R,4S)-3-[(2Z)-7-(Ethylamino)-7-oxohept-2-en-1-yl]-4-hydroxy-2-[(1E,3S)-3-hydroxy-5-phenylpent-1-en-1-yl]cyclopentyl 6-(Nitrooxy)hexanoate] | – | – | −4.9** mm H/g | −25** % |
| CCNC(=O)CCC/C=C\C[C@@H]1[C@@H](/C=C/[C@@H](O)CCc2ccccc2)[C@H](OC(=O)OCCCCO[N+](=O)[O-])C[C@@H]1O [Example G-1, (2R,3R)-3-[(2Z)-7-(Ethylamino)-7-oxohept-2-en-1-yl]-4-hydroxy-2-[(1E,3S)-3-hydroxy-5-phenylpent-1-en-1-yl]cyclopentyl 4-(Nitrooxy)butyl Carbonate] | – | – | −3.8** mm H/g | -20% |
